Measurements published in patent US10730870B2, “Compounds and methods for the enhanced degradation of targeted proteins” (Arvinas, Inc., priority 2015, dated 2020).

Test system: LNCap and VCaP cells
Experiment: Apoptosis, cell death and anti-proliferation in LNCaP and VCaP cell systems
Assay type: cell-based
Settings: increasing concentrations of AR agonist R1881 and cells containing the AR F876L mutation

Compound | anti-proliferative activity
CNC(=O)c1ccc(N2C(=S)N(c3ccc(C#N)c(C(F)(F)F)c3)C(=O)C2(C)C)cc1F [enzalutamide] | inactive

Target: His-tagged VHL protein (Homo sapiens (Human), UniProt P40337)
Experiment: Surface plasmon resonance (SPR) assay
Assay type: binding
Settings: average of at least N=2, 1:1 fitting
Experimental: The surface plasmon resonance (SPR) experiments were conducted on a Biacore3000 (GE Healthcare). His-tagged VHL protein was immobilized on a carboxymethylated dextran surface with nitriloacetic acid (NTA), taking advantage of NTA/Ni^2+ chelation. The prepared surface was allowed to equilibrate over three hours in running buffer (Ambion 1×PBS buffer @ pH 7/4, 0.005% Tween, 2% DMSO).
All compounds were prepared in 100% DMSO stock plates with a top concentration of 5 mM in a 3× serial dilution. Compounds were transferred from the stock plate to the assay plate and diluted into running buffer containing no DMSO. All compounds were run as a six-concentration series with a final assay top concentration of 100 uM. Data analysis was performed in Scrubber 2 (BioLogic software, Campbell, Australia). Blanks were subtracted and data was corrected for DMSO using a standard DMSO curve.
Table 2 illustrates VHL inhibition data (i.e., Kd, μM) of examples contained herein in a surface plasmon resonance (SPR) assay.

Sequence of His-tagged VHL protein (P40337 whole entry, looked up): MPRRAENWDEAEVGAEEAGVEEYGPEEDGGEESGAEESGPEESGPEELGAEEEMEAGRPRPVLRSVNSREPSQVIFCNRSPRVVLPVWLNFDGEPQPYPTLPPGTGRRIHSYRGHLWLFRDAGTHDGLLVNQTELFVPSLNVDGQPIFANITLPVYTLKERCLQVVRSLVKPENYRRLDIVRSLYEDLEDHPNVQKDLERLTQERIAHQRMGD
Sequence of His-tagged VHL protein (Q15370 whole entry partner, looked up): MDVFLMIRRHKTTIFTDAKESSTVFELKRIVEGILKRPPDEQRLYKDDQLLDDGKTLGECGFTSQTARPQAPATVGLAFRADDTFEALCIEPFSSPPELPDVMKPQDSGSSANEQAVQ
Sequence of His-tagged VHL protein (Q15369 whole entry partner, looked up): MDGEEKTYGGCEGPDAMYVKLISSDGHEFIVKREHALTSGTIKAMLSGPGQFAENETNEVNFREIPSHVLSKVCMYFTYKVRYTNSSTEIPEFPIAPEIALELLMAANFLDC

Kd [nM] | Compound
240 | CC[C@H](NC(=O)[C@@H]1C[C@@H](O)CN1C(=O)[C@@H](c1cc(C)no1)C(C)C)c1ccc(-c2scnc2C)cc1 [Example 207, (2S,4R)-4-hydroxy-N-[(1S)-1-[4-(4-methyl-1,3-thiazol-5-yl)phenyl]propyl]-1-[(2R)-3-methyl-2-(3-methyl-1,2-oxazol-5-yl)butanoyl]pyrrolidine-2-carboxamide]
330 | Cc1cc([C@H](C(=O)N2C[C@H](O)C[C@H]2C(=O)N[C@@H](C)c2ccc(-c3scnc3C)cc2)C(C)C)on1 [Example 205, (2S,4R)-4-hydroxy-N-[(1S)-1-[4-(4-methyl-1,3-thiazol-5-yl)phenyl]ethyl]-1-[(2R)-3-methyl-2-(3-methyl-1,2-oxazol-5-yl)butanoyl]pyrrolidine-2-carboxamide]

Test system: Androgen Receptor
Experiment: Androgen receptor ELISA assay (AR degradation) in LNCaP and/or VCaP cells
Assay type: cell-based
Settings: AR PROTACs
Experimental: Compounds have been evaluated in this assay in LNCaP and/or VCaP cells utilizing similar protocols. The protocols used with VCaP cells are described below. The androgen receptor ELISA assay was performed using PathScan AR ELISA (Cell Signaling Catalog #12850) according to the following assay steps:
VCaP cells are seeded at 30,000 cells/well at a volume of 200 μL/well in VCaP assay medium [Phenol red free RPMI (Gibco Cat #11835-030); 5% Charcoal Stripped (Dextran treated) FBS (Omega Scientific, Cat # FB-04); Pen/Strep Life Technologies (Gibco Cat #: 10378-016); 0.1 nM R1881 (Sigma, Cat # R0908) is added upon the start of the assay, not during initial plating of the cells) in Corning 3904 plates. The cells are grown for a minimum of 3 days.
(2)(i) Make 10× stock plate in media; (ii) transfer 2.5 μL of the 1000× stock to a new 10× stock plate (use 12 channel pipet, start at A (DMSO control) work thru H. When 247.5 μL of media is added to this plate, it will serve as a 10× stock; (iii) make media+1 nM R1881 for making 10× stock plate; (iv) add 247.5 μL of media with 1 nM R1881 to each well of the 10× stock plate, mix.
Then 22 μL of 10× stock is added to cells and incubated for 24h. 1× Cell Signaling Cell lysis buffer is made (Catalogue #9803; comes with the kit)—prepare for 50 μL/well. Keep on ice. Media is aspirated, and 50 μL 1× cell lysis buffer/well is added. The cells are placed on ice for 10 minutes. The solution is mixed and transferred to PCR plate, and centrifuged at 4 C for 10 minutes at 4000 rpm.
5 μL is transferred to fresh plate (use immediately or freeze −80 C); 115 μL ELISA Dilutant is added (0.15 ug/ml-0.075 ug/ml; comes with the PathScan ELISA).
Add 100 μL/well AR Elisa; cover and shake, 37 C for 2 hrs; dump, tap, wash 4×200 μL ELISA wash buffer; add 100 μL/well mouse AR detection Ab; cover and shake, 37 C for 1 hr; dump, tap, wash 4×200 μL ELISA wash buffer; add 100 μL/well anti-mouse—HRP conjugated Ab (comes with the kit); cover and shake, 37 C for 30 min; allow TMB reagent to come to RT; dump, tap, wash 4×200 μL Elisa wash buffer; tap; add 100 μL TMB, shake 5 min—while watching color. Add the stop reagent when light blue color develops. Add 100 μL Stop solution; shake and read at 450 nm.
The results presented in Table 3 were generated using the androgen receptor ELISA Assay described above, where compound potencies were characterized in highest percentage of Androgen Receptor degradation (Dmax) observed.

Compound | Dmax (highest percentage of Androgen Receptor degradation)
Cc1ncsc1-c1ccc(CNC(=O)[C@@H]2C[C@@H](O)CN2C(=O)C(C(C)C)n2cc(OC3CCN(c4ccc(-c5ccc(N6C(=S)N(c7ccc(C#N)c(C(F)(F)F)c7)C(=O)C6(C)C)cc5)cn4)CC3)cn2)cc1 (stereo partly drawn) | ++ (26%≤Dmax≤50%)
Cc1ncsc1-c1ccc([C@H](C)NC(=O)[C@@H]2C[C@@H](O)CN2C(=O)[C@H](C(C)C)n2cc(-c3ccnc(N4CCC(Nc5ccc(C(=O)N[C@H]6C(C)(C)[C@H](Oc7ccc(C#N)c(Cl)c7)C6(C)C)cc5)C4)c3)cn2)cc1 (stereo partly drawn) | ++ (26%≤Dmax≤50%)
Cc1ncsc1-c1ccc([C@H](C)NC(=O)[C@@H]2C[C@@H](O)CN2C(=O)[C@H](C(C)C)n2cc(-c3ccnc(OC4CN(c5ccc(C(=O)N[C@H]6C(C)(C)[C@H](Oc7ccc(C#N)c(Cl)c7)C6(C)C)cn5)C4)c3)cn2)cc1 | +++ (51%≤Dmax≤70%)
Cc1ncsc1-c1ccc([C@H](C)NC(=O)[C@@H]2C[C@@H](O)CN2C(=O)[C@H](C(C)C)n2cc(-c3ccnc(OC4CN(c5ncc(C(=O)NC6C(C)(C)C(Oc7ccc(C#N)c(Cl)c7)C6(C)C)cn5)C4)c3)cn2)cc1 (stereo partly drawn) | +++ (51%≤Dmax≤70%)

Test system: BRD4
Experiment: BRD4 c-myc ELISA assay in 22RV-1 cells
Assay type: cell-based
Settings: 18 hrs
Experimental: 22RV-1 cells were seeded at 30,000 cells/well at a volume of 75 μL/well in RPMI +10% FBS media in 96-well plates and grown overnight at 37 C. Cells were dosed with compounds at 4× concentration diluted in 0.4% DMSO; compounds were serially diluted 1:3 for 8-point dose curve. 25 ul of compound was added to cells for a final concentration starting at 300 nM-0.3 nM in 0.1% DMSO and incubated for 18 hrs. Media was aspirated, cells washed 1× with PBS and aspirated. Cells were lysed in 50 ul RIPA buffer (50 mM Tris pH8, 150 mM NaCl, 1% Tx-100, 0.1% SDS, 0.5% sodium deoxycholate) supplemented with protease and phosphatase inhibitors. Plates were incubated on ice for 15 minutes then centrifuged at 4° C. for 10 min at 4000 rpm. Added 50 ul of cleared lysate from 96-well assay plate into 96-well c-myc ELISA plate (Novex, Life Technologies Catalog # KH02041). […] The rest of the assay was performed following the protocol from the c-myc ELISA kit. Data was analyzed and plotted using GraphPad Prism software.

Compound | cMyc Imax
Cc1ncsc1-c1ccc([C@H](C)NC(=O)[C@@H]2C[C@@H](O)CN2C(=O)[C@@H](n2cc(-c3ccnc(O[C@H]4C[C@@H](NC(=O)C[C@@H]5N=C(c6ccc(Cl)cc6)c6c(sc(C)c6C)-n6c(C)nnc65)C4)c3)cn2)C(C)(C)C)cc1 | ++++ (71%≤Imax)
Cc1ncsc1-c1ccc([C@H](C)NC(=O)[C@@H]2C[C@@H](O)CN2C(=O)[C@@H](C(C)C)n2cc(-c3ccnc(O[C@H]4C[C@H](NC(=O)C[C@@H]5N=C(c6ccc(Cl)cc6)c6c(sc(C)c6C)-n6c(C)nnc65)C4)c3)cn2)cc1 | +++ (51%≤Imax≤70%)
Cc1ncsc1-c1ccc([C@H](C)NC(=O)[C@@H]2C[C@@H](O)CN2C(=O)[C@H](C(C)C)n2cc(-c3ccnc(O[C@H]4C[C@H](NC(=O)C[C@@H]5N=C(c6ccc(Cl)cc6)c6c(sc(C)c6C)-n6c(C)nnc65)C4)c3)cn2)cc1 | ++++ (71%≤Imax)
Cc1ncsc1-c1ccc(CNC(=O)[C@@H]2C[C@@H](O)CN2C(=O)[C@H](C(C)C)n2cc(-c3cccc(O[C@H](C)CNC(=O)C[C@@H]4N=C(c5ccc(Cl)cc5)c5c(sc(C)c5C)-n5c(C)nnc54)c3)cn2)cc1 | ++++ (71%≤Imax)
Cc1ncsc1-c1ccc([C@H](C)NC(=O)[C@@H]2C[C@@H](O)CN2C(=O)[C@H](C(C)C)n2cc(-c3ccnc(N4CC[C@H](NC(=O)C[C@@H]5N=C(c6ccc(Cl)cc6)c6c(sc(C)c6C)-n6c(C)nnc65)C4)c3)cn2)cc1 | ++++ (71%≤Imax)
